Values quoted from earlier work, collected in publication PMC6318333, “A chemical biology toolbox to study protein methyltransferases and epigenetic signaling” (Nature Communications, 2019).

Target: T1, SMYD3 (Homo sapiens, UniProt Q9H7B4)
T1 sequence (Q9H7B4 1-428): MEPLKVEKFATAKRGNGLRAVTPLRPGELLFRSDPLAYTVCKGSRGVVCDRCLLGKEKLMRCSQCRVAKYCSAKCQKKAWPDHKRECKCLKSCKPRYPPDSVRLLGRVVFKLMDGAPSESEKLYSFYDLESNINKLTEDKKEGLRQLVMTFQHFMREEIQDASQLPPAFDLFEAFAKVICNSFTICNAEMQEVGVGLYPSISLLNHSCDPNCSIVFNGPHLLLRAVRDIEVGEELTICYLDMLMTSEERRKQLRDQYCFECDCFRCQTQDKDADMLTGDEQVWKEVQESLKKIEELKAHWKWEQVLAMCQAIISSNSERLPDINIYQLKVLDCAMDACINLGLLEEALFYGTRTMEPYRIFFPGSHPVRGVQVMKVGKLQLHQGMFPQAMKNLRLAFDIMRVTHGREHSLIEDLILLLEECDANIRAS
Test: biochemical methyltransferase assay with recombinant protein
Conditions: read-out: In vitro IC50 or Kd

## BAY-6035
  IC50: 88 nM
